Measurements taken from ChEMBL document CHEMBL3044740, “Syntheses and evaluation of 2,5-disubstituted 4-thiazolidinone analogues as antimicrobial agents” (2012).
The source made the active and inactive calls. The rule behind the calls is not given here.

Legend:
Format in all cases: functional
[1] = test system: Candida albicans; assay: Antifungal activity against Candida albicans MTCC 227 at 300 ug/ml by cup-plate method
[2] = test system: Candida albicans; assay: Antifungal activity against Candida albicans MTCC 227 at 200 ug/ml by cup-plate method
[3] = test system: Escherichia coli; assay: Antibacterial activity against Escherichia coli MTCC 739 at 300 ug/ml by cup-plate method; details: for zone of inhibition at 300 µg/mL: read-out: DIZ
[4] = test system: Candida albicans; assay: Antifungal activity against Candida albicans MTCC 227 at 100 ug/ml by cup-plate method
[5] = test system: Escherichia coli; assay: Antibacterial activity against Escherichia coli MTCC 739 at 200 ug/ml by cup-plate method; details: for zone of inhibition at 200 µg/mL: read-out: DIZ
[6] = test system: Escherichia coli; assay: Antibacterial activity against Escherichia coli MTCC 739 at 100 ug/ml by cup-plate method; details: for zone of inhibition at 100 µg/mL: read-out: DIZ
[7] = test system: Pseudomonas aeruginosa; assay: Antibacterial activity against Pseudomonas aeruginosa MTCC 2453 at 300 ug/ml by cup-plate method; details: for zone of inhibition at 300 µg/mL: read-out: DIZ
[8] = test system: Pseudomonas aeruginosa; assay: Antibacterial activity against Pseudomonas aeruginosa MTCC 2453 at 200 ug/ml by cup-plate method; details: for zone of inhibition at 200 µg/mL: read-out: DIZ
[9] = test system: Pseudomonas aeruginosa; assay: Antibacterial activity against Pseudomonas aeruginosa MTCC 2453 at 100 ug/ml by cup-plate method; details: for zone of inhibition at 100 µg/mL: read-out: DIZ
[10] = test system: Bacillus subtilis; assay: Antibacterial activity against Bacillus subtilis MTCC 121 at 300 ug/ml by cup plate method; details: read-out: DIZ
[11] = test system: Bacillus subtilis; assay: Antibacterial activity against Bacillus subtilis MTCC 121 at 200 ug/ml by cup plate method; details: read-out: DIZ
[12] = test system: Bacillus subtilis; assay: Antibacterial activity against Bacillus subtilis MTCC 121 at 100 ug/ml by cup plate method; details: read-out: DIZ
[13] = test system: Staphylococcus aureus; assay: Antibacterial activity against Staphylococcus aureus MTCC 96 at 300 ug/ml by cup-plate method; details: read-out: DIZ
[14] = test system: Staphylococcus aureus; assay: Antibacterial activity against Staphylococcus aureus MTCC 96 at 200 ug/ml by cup-plate method; details: read-out: DIZ
[15] = test system: Staphylococcus aureus; assay: Antibacterial activity against Staphylococcus aureus MTCC 96 at 100 ug/ml by cup-plate method; details: read-out: DIZ
[16] = test system: Candida albicans; assay: Antifungal activity against Candida albicans MTCC 227 at 50 ug/ml by cup-plate method
[17] = test system: Pseudomonas aeruginosa; assay: Antibacterial activity against Pseudomonas aeruginosa MTCC 2453 at 50 ug/ml by cup-plate method; details: for zone of inhibition at 50 µg/mL: read-out: DIZ
[18] = test system: Escherichia coli; assay: Antibacterial activity against Escherichia coli MTCC 739 at 50 ug/ml by cup-plate method; details: for zone of inhibition at 50 µg/mL: read-out: DIZ
[19] = test system: Bacillus subtilis; assay: Antibacterial activity against Bacillus subtilis MTCC 121 at 50 ug/ml by cup plate method; details: read-out: DIZ
[20] = test system: Staphylococcus aureus; assay: Antibacterial activity against Staphylococcus aureus MTCC 96 at 50 ug/ml by cup-plate method; details: read-out: DIZ

Compound | diameter of the inhibition zone (DIZ) [1] | diameter of the inhibition zone (DIZ) [2] | zone of inhibition at 300 µg/mL [3] [mm] | diameter of the inhibition zone (DIZ) [4] | zone of inhibition at 200 µg/mL [5] [mm] | zone of inhibition at 100 µg/mL [6] [mm] | zone of inhibition at 300 µg/mL [7] [mm] | zone of inhibition at 200 µg/mL [8] [mm] | zone of inhibition at 100 µg/mL [9] [mm] | zone of inhibition at 300 µg/mL [10] [mm] | zone of inhibition at 200 µg/mL [11] [mm] | zone of inhibition at 100 µg/mL [12] [mm] | zone of inhibition at 300 µg/mL [13] [mm] | zone of inhibition at 200 µg/mL [14] [mm] | zone of inhibition at 100 µg/mL [15] [mm] | diameter of the inhibition zone (DIZ) [16] | zone of inhibition at 50 µg/mL [17] [mm] | zone of inhibition at 50 µg/mL [18] [mm] | zone of inhibition at 50 µg/mL [19] [mm] | zone of inhibition at 50 µg/mL [20] [mm] | also measured
O=C1N/C(=N\c2ccc([N+](=O)[O-])cc2)S/C1=C\c1ccccc1 | inactive | inactive | 15 | inactive | 13 | 12 | 13 | 11 | 10 | 15 | 13 | 12 | 16 | 14 | 13 | inactive | 10 | 11 | 11 | 12 | 
O=C1N/C(=N\c2ccc([N+](=O)[O-])cc2)S/C1=C\c1ccccc1Cl | inactive | inactive | 16 | inactive | 15 | 14 | 17 | 16 | 14 | 17 | 15 | 14 | 19 | 17 | 16 | inactive | 13 | 13 | 13 | 15 | 
O=C1N/C(=N\c2ccc([N+](=O)[O-])cc2)S/C1=C\c1ccccc1[N+](=O)[O-] | inactive | inactive | 12 | inactive | 12 | 11 | 12 | 12 | 11 | 15 | 13 | 12 | 17 | 16 | 15 | inactive | 10 | 11 | 11 | 11 | 
O=C1N/C(=N\c2ccc([N+](=O)[O-])cc2)S/C1=C\c1ccc(O)cc1 | inactive | inactive | 15 | inactive | 13 | 12 | 12 | 11 | 11 | 15 | 14 | 12 | 15 | 13 | 12 | inactive | 10 | 11 | 11 | 11 | 
O=C1N/C(=N\c2ccccc2[N+](=O)[O-])S/C1=C\c1ccc(O)cc1 | inactive | inactive |  | inactive |  |  |  |  |  | 11 | 10 | 10 | 11 | 10 | 10 | inactive |  |  | 10 | 10 | diameter of the inhibition zone (DIZ) [3]: inactive; diameter of the inhibition zone (DIZ) [5]: inactive; diameter of the inhibition zone (DIZ) [6]: inactive; diameter of the inhibition zone (DIZ) [7]: inactive; diameter of the inhibition zone (DIZ) [8]: inactive; diameter of the inhibition zone (DIZ) [9]: inactive; diameter of the inhibition zone (DIZ) [17]: inactive; diameter of the inhibition zone (DIZ) [18]: inactive
O=C1N/C(=N\c2ccc([N+](=O)[O-])cc2)S/C1=C\c1cccc([N+](=O)[O-])c1 | inactive | inactive | 12 | inactive | 12 | 11 | 12 | 12 | 11 | 15 | 13 | 12 | 17 | 16 | 15 | inactive | 10 | 11 | 11 | 11 | 
